Laboratory results taken from the supplement of paper PMC11061612.

How the values were obtained:
Test in all cases: combination Emax (second highest fraction inhibited in the dose matrix, 72 h); higher = more inhibition; extreme values may be limits of the assay
[1] = tested on: BL-41 (Burkitt's Lymphoma)
Outline: (§1)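 Cell lines grown in DMEM/F12 or RPMI with 10% FBS were plated in 1536-well plates and held 24 hours at 37°C, 5% CO2 before 72 hours of exposure to two-drug dose matrices, with DMSO typically at 0.2%. CellTiter-Glo 2.0 luminescence gave viability, which was converted to inhibition. Vehicle wells were set to 0 and blank wells to 1. Combination Emax is the second-highest inhibition in the matrix, and Bliss excess is the observed combination effect minus the expected EA + EB − EA·EB, where EA and EB are the single-agent effects.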

[2] = tested on: CAMA-1 (Breast Carcinoma)
Outline: as §1

[3] = tested on: CHP-212 (Neuroblastoma)
Outline: as §1

[4] = tested on: DiFi (Colorectal Carcinoma)
Outline: as §1

[5] = tested on: ES8 (Ewing's Sarcoma)
Outline: as §1

[6] = tested on: GR-ST (B-Lymphoblastic Leukemia)
Outline: as §1

[7] = tested on: HDQ-P1 (Breast Carcinoma)
Outline: as §1

[8] = tested on: HL-60 (Acute Myeloid Leukemia)
Outline: as §1

[9] = tested on: K-562 (Chronic Myelogenous Leukemia)
Outline: as §1

[10] = tested on: KARPAS-45 (T-Lymphoblastic Leukemia)
Outline: as §1

[11] = tested on: KM12 (Colorectal Carcinoma)
Outline: as §1

[12] = tested on: MKN28 (Gastric Carcinoma)
Outline: as §1

[13] = tested on: MS751 (Cervical Carcinoma)
Outline: as §1

[14] = tested on: NCI-H1792 (Lung Adenocarcinoma)
Outline: as §1

[15] = tested on: NCI-H847 (Small Cell Lung Carcinoma)
Outline: as §1

[16] = tested on: SR (Other Blood Carcinomas)
Outline: as §1

[17] = tested on: SU-DHL-8 (B-Cell Non-Hodgkin's Lymphoma)
Outline: as §1

[18] = tested on: SW837 (Colorectal Carcinoma)
Outline: as §1

[19] = tested on: TE-6 (Esophageal Squamous Cell Carcinoma)
Outline: as §1

[20] = tested on: WM-115 (Melanoma)
Outline: as §1

| Structure (SMILES) | combination Emax [1] | combination Emax [2] | combination Emax [3] | combination Emax [4] | combination Emax [5] | combination Emax [6] | combination Emax [7] | combination Emax [8] | combination Emax [9] | combination Emax [10] | combination Emax [11] | combination Emax [12] | combination Emax [13] | combination Emax [14] | combination Emax [15] | combination Emax [16] | combination Emax [17] | combination Emax [18] | combination Emax [19] | combination Emax [20] |
| --- | --- | --- | --- | --- | --- | --- | --- | --- | --- | --- | --- | --- | --- | --- | --- | --- | --- | --- | --- | --- |
| Cc1cc2ncnn2cc1Nc1ncc2c(n1)n(C1CCOCC1)c(=O)n2C [AZD7648] + CCN(CCO)CCCOc1ccc2c(Nc3cc(CC(=O)Nc4cccc(F)c4)[nH]n3)ncnc2c1 [AZD2811] (first compound max 10 µM, 7x7, partner max 1 µM) | 0.747 | 0.28 | 0.693 | 0.584 | 1 | 0.466 | 0.423 | 0.865 | 0.202 | 0.931 | 0.261 | 0.309 | 0.453 | 0.553 | 0.971 | 0.86 | 0.245 | 0.192 | 0.313 | 0.42 |
| COc1cccc(OCCCN)c1-c1cc(Nc2cnc(C#N)cn2)n[nH]1 [Prexasertib] + Cc1cc2ncnn2cc1Nc1ncc2c(n1)n(C1CCOCC1)c(=O)n2C [AZD7648] (first compound max 1 µM, 7x7, partner max 10 µM) | 1 | 0.384 | 0.814 | 0.864 | 0.842 | 0.806 | 0.612 | 0.961 | 0.948 | 0.981 | 0.796 | 0.575 | 0.453 | 0.87 | 1 | 1 | 0.968 | 0.749 | 0.554 | 0.59 |
| CN(C)CCCOc1ccc(-c2ccc3ncc4c(c3c2)n(C2CCOCC2)c(=O)n4C)cn1 [AZD0156] + C[C@@H]1COCCN1C2=NC(=NC(=C2)C3(CC3)[S@](=N)(=O)C)C4=C5C=CNC5=NC=C4 [AZD6738] (first compound max 1 µM, 7x7, partner max 10 µM) | 1 | 0.273 | 0.839 | 0.829 | 0.799 | 0.715 | 0.381 | 0.751 | 0.9 | 0.857 | 0.696 | 0.471 | 0.271 | 0.707 | 0.956 | 0.946 | 0.892 | 0.466 | 0.636 | 0.488 |
| Cc1c2c(nn1C)CSCc1cc(n(C)n1)CSc1cc(c3ccccc3c1)OCCCc1c(C(=O)O)n(C)c3c-2c(Cl)ccc13 [AZD5991] + Cn1cnc2c(F)c(Nc3ccc(Br)cc3Cl)c(C(=O)NOCCO)cc21 [Selumetinib] (first compound max 1 µM, 7x7, partner max 3 µM) | 1 | 0.509 | 0.944 | 0.875 | 0.521 | 0.0688 | 0.211 | 1 | 0.416 | 0.922 | 0.638 | 0.387 | 0.896 | 0.704 | 0.863 | 0.952 | 0.655 | 0.325 | 0.62 | 0.68 |
| COc1cccc(OCCCN)c1-c1cc(Nc2cnc(C#N)cn2)n[nH]1 [Prexasertib] + CN(C)CCCOc1ccc(-c2ccc3ncc4c(c3c2)n(C2CCOCC2)c(=O)n4C)cn1 [AZD0156] (first compound max 1 µM, 7x7, partner max 1 µM) | 1 | 0.327 | 0.782 | 0.878 | 0.837 | 0.822 | 0.538 | 0.956 | 0.979 | 0.971 | 0.775 | 0.597 | 0.378 | 0.825 | 1 | 1 | 0.964 | 0.803 | 0.567 | 0.566 |
| Cc1cc2ncnn2cc1Nc1ncc2c(n1)n(C1CCOCC1)c(=O)n2C [AZD7648] + C=CCn1c(=O)c2cnc(Nc3ccc(N4CCN(C)CC4)cc3)nc2n1-c1cccc(C(C)(C)O)n1 [AZD1775] (first compound max 10 µM, partner max 1 µM) | 1 | 0.303 | 0.769 | 0.821 | 0.691 | 0.772 | 0.567 | 0.812 | 0.645 | 0.819 | 0.764 | 0.668 | 0.387 | 0.715 | 1 | 0.986 | 0.87 | 0.292 | 0.363 | 0.469 |
| C=CCn1c(=O)c2cnc(Nc3ccc(N4CCN(C)CC4)cc3)nc2n1-c1cccc(C(C)(C)O)n1 [AZD1775] + C1CN(CCC1(C(=O)N[C@@H](CCO)C2=CC=C(C=C2)Cl)N)C3=NC=NC4=C3C=CN4 [Capivasertib] (first compound max 3 µM, partner max 3 µM) | 0.993 | 0.775 | 0.859 | 0.643 | 0.943 | 0.818 | 0.856 | 0.849 | 0.895 | 0.962 | 0.872 | 0.609 | 0.899 | 0.808 | 1 | 0.999 | 0.953 | 0.692 | 0.736 | 0.536 |
| CC(=O)Nc1cccc(-n2c(=O)n(C3CC3)c(=O)c3c(Nc4ccc(I)cc4F)n(C)c(=O)c(C)c32)c1 [Trametinib] + Cc1nc(-c2cn3c(n2)-c2ccc(-c4cnn(C(C)(C)C(N)=O)c4)cc2OCC3)n(C(C)C)n1 [Taselisib] (first compound max 1 µM, 7x7, partner max 10 µM) | 0.319 | 0.491 | 1 | 1 | 0.844 | 0.633 | 0.915 | 0.958 | 0.495 | 0.755 | 0.84 | 0.708 | 0.438 | 1 | 0.782 | 0.719 | 0 | 0.738 | 0.908 | 0.951 |
| Cc1c2c(nn1C)CSCc1cc(n(C)n1)CSc1cc(c3ccccc3c1)OCCCc1c(C(=O)O)n(C)c3c-2c(Cl)ccc13 [AZD5991] + CN(C)CCCOc1ccc(-c2ccc3ncc4c(c3c2)n(C2CCOCC2)c(=O)n4C)cn1 [AZD0156] (first compound max 1 µM, 7x7, partner max 1 µM) | 1 | 0.555 | 0.837 | 0.252 | 0.385 | 0.502 | 0.195 | 1 | 0.172 | 0.913 | 0.27 | 0.275 | 0.859 | 0.345 | 0.57 | 0.96 | 0.692 | 0.208 | 0.792 | 0.244 |
| COc1cccc(OCCCN)c1-c1cc(Nc2cnc(C#N)cn2)n[nH]1 [Prexasertib] + C[C@@H]1COCCN1C2=NC(=NC(=C2)C3(CC3)[S@](=N)(=O)C)C4=C5C=CNC5=NC=C4 [AZD6738] (first compound max 1 µM, 7x7, partner max 10 µM) | 1 | 0.417 | 0.788 | 0.881 | 0.798 | 0.829 | 0.597 | 0.971 | 0.985 | 0.979 | 0.767 | 0.597 | 0.383 | 0.832 | 1 | 1 | 0.964 | 0.752 | 0.695 | 0.59 |
| CC1(C)CCC(CN2CCN(c3ccc(C(=O)NS(=O)(=O)c4ccc(NCC5CCOCC5)c([N+](=O)[O-])c4)c(Oc4cnc5[nH]ccc5c4)c3)CC2)=C(c2ccc(Cl)cc2)C1 [Venetoclax] + C=CCn1c(=O)c2cnc(Nc3ccc(N4CCN(C)CC4)cc3)nc2n1-c1cccc(C(C)(C)O)n1 [AZD1775] (first compound max 1 µM, partner max 1 µM) | 1 | 0.38 | 0.769 | 0.674 | 0.94 | 0.813 | 0.532 | 0.899 | 0.892 | 0.955 | 0.781 | 0.501 | 0.261 | 0.828 | 0.992 | 0.995 | 1 | 0.453 | 0.497 | 0.27 |
| CN(C)CCCOc1ccc(-c2ccc3ncc4c(c3c2)n(C2CCOCC2)c(=O)n4C)cn1 [AZD0156] + C=CCn1c(=O)c2cnc(Nc3ccc(N4CCN(C)CC4)cc3)nc2n1-c1cccc(C(C)(C)O)n1 [AZD1775] (first compound max 1 µM, partner max 1 µM) | 1 | 0.104 | 0.831 | 0.637 | 0.646 | 0.78 | 0.469 | 0.387 | 0.715 | 0.854 | 0.731 | 0.481 | 0.155 | 0.643 | 0.971 | 0.99 | 0.888 | 0.237 | 0.232 | 0.254 |
| COc1cc2c(cc1OCCCCCOc1cc3c(cc1OC)C(=O)N1C=C(C)C[C@H]1C=N3)N=C[C@@H]1CC(C)=CN1C2=O [SG3199] + O=C(c1cc(Cc2n[nH]c(=O)c3ccccc23)ccc1F)N1CCN(C(=O)C2CC2)CC1 [Olaparib] (first compound max 0.001 µM, 7x7, partner max 10 µM) | 0.107 | 0.109 | 0.384 | 0.107 | 0.828 | 0.359 | 0.153 | 0.133 | 0.134 | 0.0966 | 0.113 | 0.0709 | 0.176 | 0.144 | 0.509 | 0.445 | 0.55 | 0.0782 | 0.117 | 0.206 |
